Experimental data reported in PubChem BioAssay (NCI).
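Briefly, cells in 96-well plates were exposed to five compound concentrations for 48 h, and endpoints were estimated by linear interpolation. At the TGI there is no net growth.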

Assays:
Assay in all cases: DTP human tumour cell line panel, 48 h
SF-295 CNS = system: SF-295 CNS
NCI/ADR-RES ovarian = system: NCI/ADR-RES ovarian
HOP-92 NSCLC = system: HOP-92 NSCLC
UACC-257 melanoma = system: UACC-257 melanoma
786-0 renal = system: 786-0 renal
NCI-H226 lung = system: NCI-H226 lung
SK-MEL-28 melanoma = system: SK-MEL-28 melanoma
NCI-H460 lung = system: NCI-H460 lung
HT29 colon = system: HT29 colon
A498 renal = system: A498 renal
MALME-3M melanoma = system: MALME-3M melanoma
HS 578T breast = system: HS 578T breast
RPMI-8226 leukemia = system: RPMI-8226 leukemia
SR leukemia = system: SR leukemia
NCI-H23 lung = system: NCI-H23 lung
HCT-116 colon = system: HCT-116 colon
EKVX NSCLC = system: EKVX NSCLC
MOLT-4 leukemia = system: MOLT-4 leukemia
SK-MEL-5 melanoma = system: SK-MEL-5 melanoma
A549 NSCLC = system: A549 NSCLC
CCRF-CEM leukemia = system: CCRF-CEM leukemia
OVCAR-5 ovarian = system: OVCAR-5 ovarian
OVCAR-8 ovarian = system: OVCAR-8 ovarian
LOX IMVI melanoma = system: LOX IMVI melanoma
K-562 leukemia = system: K-562 leukemia
SW-620 colon = system: SW-620 colon
DU-145 prostate = system: DU-145 prostate
M14 melanoma = system: M14 melanoma
IGROV1 ovarian = system: IGROV1 ovarian
SNB-19 CNS = system: SNB-19 CNS
HOP-62 NSCLC = system: HOP-62 NSCLC
OVCAR-4 ovarian = system: OVCAR-4 ovarian
OVCAR-3 ovarian = system: OVCAR-3 ovarian
SF-268 CNS = system: SF-268 CNS
SK-MEL-2 melanoma = system: SK-MEL-2 melanoma
HL-60(TB) leukemia = system: HL-60(TB) leukemia
MCF7 breast = system: MCF7 breast
SF-539 CNS = system: SF-539 CNS
HCC-2998 colon = system: HCC-2998 colon
SN12C renal = system: SN12C renal
PC-3 prostate = system: PC-3 prostate
TK-10 renal = system: TK-10 renal
HCT-15 colon = system: HCT-15 colon
KM12 colon = system: KM12 colon
NCI-H522 lung = system: NCI-H522 lung
ACHN renal = system: ACHN renal
SNB-75 CNS = system: SNB-75 CNS
U251 CNS = system: U251 CNS

Measured: TGI

O=c1c2ccccc2nc2n1CCc1c-2[nH]c2ccc(Br)cc12
not listed: SF-268 CNS | SK-MEL-2 melanoma | HL-60(TB) leukemia | MCF7 breast | SF-539 CNS | HCC-2998 colon | SN12C renal | PC-3 prostate | TK-10 renal | HCT-15 colon | KM12 colon | NCI-H522 lung | ACHN renal | SNB-75 CNS | U251 CNS
> 100 µM: all other assays above

O=C(CCCn1cnc([N+](=O)[O-])n1)NCCCn1ccnc1[N+](=O)[O-]
not listed: NCI/ADR-RES ovarian | HOP-92 NSCLC | LOX IMVI melanoma | DU-145 prostate | M14 melanoma | IGROV1 ovarian | SNB-19 CNS | OVCAR-4 ovarian
> 100 µM: all other assays above
